Results published in ChEMBL document CHEMBL1201862, “PubChem BioAssay data set” (2004).
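Dose response: 5 concentrations. Exposure: 48 h. Format: 96-well plates. Endpoint: linear interpolation; highest concentration if not reached. Abbreviation: GI50, concentration required for 50% inhibition of growth.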 Calls of active or inactive are those of the source. No stated cut-off is given here; in the data, active = GI50 up to about 1.1 µM and inactive = higher. Where a SMILES comes first, the peptide text is derived from it. The star is where a group is joined. Boc = CC(C)(C)OC(=O)*; OBn = c1ccc(CO*)cc1

What was measured:
Experiment in all cases: NCI anticancer screen, dose series, 48 h
[1] = system: 786-0
[2] = system: SNB-19
[3] = system: HCT-116
[4] = system: A549
[5] = system: ACHN
[6] = system: IGROV-1
[7] = system: UO-31
[8] = system: OVCAR-8
[9] = system: COLO 205
[10] = system: Malme-3M
[11] = system: HOP-18
[12] = system: UACC-62
[13] = system: SK-OV-3
[14] = system: SK-MEL-5
[15] = system: SNB-75
[16] = system: HOP-92
[17] = system: BT-549
[18] = system: NCI/ADR-RES
[19] = system: SK-MEL-2
[20] = system: MDA-N

Measured: GI50

Oc1c(C(Nc2cccc3cccnc23)c2ccccc2)ccc2cccnc12 (stereo not drawn)
inactive: [1] 4.07 µM | [2] 4.69 µM | [3] 5.6 µM | [4] 6.04 µM | [5] 3.91 µM | [6] 8.04 µM | [7] 4.11 µM | [8] 3.72 µM | [9] 6.25 µM | [10] 3.49 µM | [11] 4.78 µM | [12] 21.6 µM

C[N+](C)(C)CC1CCCCC1=O (stereo not drawn)
inactive: [1] > 100 µM | [13] > 100 µM | [2] > 100 µM | [3] 17.7 µM | [4] > 100 µM | [5] 16.4 µM | [6] > 100 µM | [7] > 100 µM | [8] 19.2 µM | [9] 22.6 µM | [10] 19.6 µM | [14] 25.2 µM | [11] 16.3 µM | [12] 18.9 µM | [15] 20.5 µM

COC(=O)C(=O)c1c2ccccc2n2ccc3c4ccccc4[nH]c3c12
inactive: [1] > 10 µM | [13] > 10 µM | [2] > 10 µM | [16] > 10 µM | [3] > 10 µM | [4] > 10 µM | [5] > 10 µM | [6] > 10 µM | [7] > 10 µM | [17] > 10 µM | [8] > 10 µM | [9] > 10 µM | [18] > 10 µM | [10] > 10 µM | [14] > 10 µM | [19] > 10 µM | [20] > 10 µM | [12] > 10 µM | [15] > 10 µM

CN1C(=O)N/C(=C\c2ccc(S(=O)(=O)N/N=C\C(O)C(O)C(O)CO)cc2)C1=O (stereo not drawn)
inactive: [1] > 100 µM | [13] > 100 µM | [2] > 100 µM | [16] > 100 µM | [3] > 100 µM | [4] > 100 µM | [5] > 100 µM | [6] > 100 µM | [7] > 100 µM | [17] > 100 µM | [8] > 100 µM | [9] > 100 µM | [18] > 100 µM | [10] > 100 µM | [14] > 100 µM | [19] > 100 µM | [20] > 100 µM | [12] > 100 µM | [15] > 100 µM

c1cc(-c2ccc(Oc3ccc(-c4ccncc4)cc3)cc2)ccn1
inactive: [1] 6.81 µM | [13] 15.3 µM | [2] 6.25 µM | [16] 14.1 µM | [3] 4.24 µM | [4] 4.91 µM | [5] 9.48 µM | [6] 7.4 µM | [7] 7.21 µM | [17] 5.07 µM | [8] 9.55 µM | [9] 3.56 µM | [18] 3.01 µM | [10] 6.82 µM | [14] 2.2 µM | [19] 5.38 µM | [20] 2.39 µM | [12] 7.18 µM | [15] 15.9 µM

C1COCCN1.CN(C)c1ccc(-c2c(C#N)c(N)nc(S)c2C#N)cc1
inactive: [1] > 100 µM | [13] > 100 µM | [2] 39.9 µM | [16] 21.8 µM | [3] > 100 µM | [4] > 100 µM | [5] > 100 µM | [6] 40.1 µM | [7] 64.1 µM | [17] 83 µM | [8] > 100 µM | [9] > 100 µM | [18] > 100 µM | [10] > 100 µM | [14] 44.7 µM | [19] 34.4 µM | [20] 54.1 µM | [12] 35 µM | [15] 34.3 µM

O=C(/C=C/c1ccccc1)CC(=O)CCC(=O)Nc1ccc(Cl)cc1
inactive: [1] > 100 µM | [13] > 100 µM | [2] > 100 µM | [3] 37.8 µM | [4] > 100 µM | [5] 23.6 µM | [6] 86.1 µM | [7] 94 µM | [8] > 100 µM | [9] > 100 µM | [10] > 100 µM | [14] > 100 µM | [19] > 100 µM | [11] > 100 µM | [12] 2.69 µM

C=CCSC[C@H](NC(=O)COc1ccccc1)C(=O)NC(C(=O)OCc1ccc([N+](=O)[O-])cc1)=C(C)C
inactive: [1] > 100 µM | [13] > 100 µM | [3] > 100 µM | [4] 62.1 µM | [5] 54 µM | [6] > 100 µM | [7] 33.6 µM | [8] 63 µM | [9] 20.6 µM | [10] > 100 µM | [14] 27.6 µM | [19] > 100 µM | [11] > 100 µM | [12] 72.6 µM | [15] 37.6 µM

COC(=O)CCC(C)[C@H]1CCC2C3CC[C@@H]4CC5(CC[C@]4(C)C3C[C@H](OC(C)=O)[C@@]21C)OOC1(CCCCC1)OO5 (stereo partly drawn)
inactive: [1] 12.1 µM | [13] > 100 µM | [2] > 100 µM | [16] 46.6 µM | [3] 3.24 µM | [4] 9.77 µM | [5] 8.32 µM | [6] 2.12 µM | [7] 2.67 µM | [17] 27.6 µM | [8] 13.7 µM | [9] 6.17 µM | [18] 81.1 µM | [10] 4.03 µM | [14] 5.78 µM | [19] 5.26 µM | [20] 8.26 µM | [12] > 100 µM | [15] 55.2 µM

O=C1C(Cl)C(c2cccc([N+](=O)[O-])c2)N1n1cnc2ccccc2c1=O (stereo not drawn)
inactive: [1] > 100 µM | [13] > 100 µM | [2] > 100 µM | [3] 37.8 µM | [4] > 100 µM | [5] > 100 µM | [6] > 100 µM | [7] 14.7 µM | [8] > 100 µM | [9] > 100 µM | [10] > 100 µM | [14] > 100 µM | [19] > 100 µM | [11] 11 µM | [12] > 100 µM | [15] 65.8 µM

O=c1[nH]c2nc3ccccc3c(=O)n2/c1=C/c1ccccc1
inactive: [1] 25.8 µM | [13] > 100 µM | [2] 19.6 µM | [16] 20.7 µM | [3] 31.1 µM | [4] > 100 µM | [5] 47 µM | [6] 17.9 µM | [7] 78 µM | [17] 17.1 µM | [8] 28 µM | [9] 33.1 µM | [18] 43.6 µM | [10] 38.6 µM | [14] 48.9 µM | [19] > 100 µM | [20] 25.6 µM | [12] 28.6 µM | [15] 30.5 µM

O=C(O)C(O)C(O)C(O)C(=O)CO (stereo not drawn)
inactive: [1] > 100 µM | [13] > 100 µM | [2] > 100 µM | [16] > 100 µM | [3] > 100 µM | [4] > 100 µM | [5] > 100 µM | [6] > 100 µM | [7] > 100 µM | [17] > 100 µM | [8] > 100 µM | [9] > 100 µM | [18] > 100 µM | [10] > 100 µM | [14] > 100 µM | [19] > 100 µM | [20] > 100 µM | [12] > 100 µM | [15] > 100 µM

CC(C)CC(=O)NC(C(=O)NC(C(=O)NC(CC(C)C)C(O)CC(=O)NC(C)C(=O)NC(CC(C)C)C(O)CC(=O)O)C(C)C)C(C)C (stereo not drawn)
inactive: [1] > 100 µM | [13] > 100 µM | [2] > 100 µM | [16] > 100 µM | [3] > 100 µM | [4] > 100 µM | [5] > 100 µM | [6] > 100 µM | [7] > 100 µM | [17] 22.1 µM | [8] > 100 µM | [9] > 100 µM | [18] > 100 µM | [10] > 100 µM | [14] > 100 µM | [19] > 100 µM | [20] > 100 µM | [12] > 100 µM | [15] > 100 µM

O=c1cc(N2CCNCC2)nc2ccccn12
inactive: [1] > 100 µM | [13] > 100 µM | [2] > 100 µM | [16] > 100 µM | [3] > 100 µM | [4] > 100 µM | [5] > 100 µM | [6] > 100 µM | [7] > 100 µM | [17] > 100 µM | [8] > 100 µM | [9] > 100 µM | [18] > 100 µM | [10] > 100 µM | [14] > 100 µM | [19] > 100 µM | [20] > 100 µM | [12] > 100 µM | [15] > 100 µM

CC(C)CC(NC(=O)OC(C)(C)C)C(=O)N1CCCC1C(=O)OCc1ccccc1 (stereo not drawn) (Boc-Leu-Pro-OBn; configuration not given here)
inactive: [1] > 100 µM | [13] > 100 µM | [2] > 100 µM | [16] > 100 µM | [3] > 100 µM | [4] > 100 µM | [5] > 100 µM | [6] > 100 µM | [7] 75 µM | [17] > 100 µM | [8] > 100 µM | [9] > 100 µM | [18] > 100 µM | [10] > 100 µM | [14] > 100 µM | [19] > 100 µM | [20] > 100 µM | [12] > 100 µM | [15] > 100 µM
